For assay [1], the system named is extracellular 5-HT in nucleus accumbens. Type of assay: in vivo, rat. To be noted: 6 mg/kg i.p.; for persistent elevation of extracellular 5-HT for the duration of sampling: 4 doses every 2 h, 8 h sampling, % of basal; for extracellular 5-HT after the first dose: first of 4 doses, nucleus accumbens dialysate.
Assay [2] concerns extracellular dopamine in nucleus accumbens. Nature of the assay: In vivo microdialysis in rat nucleus accumbens, dialysate dopamine. To be noted: 6 mg/kg i.p., 4 doses; not different from saline in post hoc tests.
The target of a further assay is hSERT (Homo sapiens, UniProt P31645). Nature of the assay: cell-based. Type of assay: cell-based. The conditions noted are these: for concentration at which maximal current was measured: bell-shaped concentration-response curve; for inwardly-directed current compared to 5-HT-induced current: raw current traces, reference 10 μM 5-HT.
The next assay deals with SERT (Rattus norvegicus, UniProt P31652). The assay can be described thus: In vitro [3H]5-HT release from rat brain synaptosomes. It is filed as biochemical.
In assay [3] the test system is [3H]dopamine release, rat caudate synaptosomes. Nature of the assay: In vitro [3H]dopamine release from rat caudate synaptosomes. Type of assay: biochemical. The conditions noted are these: tested at concentrations up to 10 μM (data not shown).

Structures can show the parent of a compound that is named as a salt.

Chain of hSERT (P31645 whole entry): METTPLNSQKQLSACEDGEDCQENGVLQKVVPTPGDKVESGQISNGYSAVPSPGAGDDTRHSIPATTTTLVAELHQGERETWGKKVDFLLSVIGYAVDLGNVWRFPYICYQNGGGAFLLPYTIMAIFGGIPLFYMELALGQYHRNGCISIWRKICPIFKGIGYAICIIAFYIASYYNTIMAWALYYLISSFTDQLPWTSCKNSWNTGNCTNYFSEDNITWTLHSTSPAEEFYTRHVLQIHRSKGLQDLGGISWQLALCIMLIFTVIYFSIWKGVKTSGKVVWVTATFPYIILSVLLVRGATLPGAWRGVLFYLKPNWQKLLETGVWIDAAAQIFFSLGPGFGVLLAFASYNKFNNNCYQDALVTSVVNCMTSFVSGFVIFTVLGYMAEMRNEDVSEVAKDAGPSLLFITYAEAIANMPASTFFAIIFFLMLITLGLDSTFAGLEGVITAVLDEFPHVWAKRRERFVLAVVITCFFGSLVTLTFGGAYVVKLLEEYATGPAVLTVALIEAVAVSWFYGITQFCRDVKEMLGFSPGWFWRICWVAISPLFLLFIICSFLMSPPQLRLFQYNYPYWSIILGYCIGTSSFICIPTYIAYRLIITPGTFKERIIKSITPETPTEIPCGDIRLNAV
Chain of SERT (P31652 whole entry): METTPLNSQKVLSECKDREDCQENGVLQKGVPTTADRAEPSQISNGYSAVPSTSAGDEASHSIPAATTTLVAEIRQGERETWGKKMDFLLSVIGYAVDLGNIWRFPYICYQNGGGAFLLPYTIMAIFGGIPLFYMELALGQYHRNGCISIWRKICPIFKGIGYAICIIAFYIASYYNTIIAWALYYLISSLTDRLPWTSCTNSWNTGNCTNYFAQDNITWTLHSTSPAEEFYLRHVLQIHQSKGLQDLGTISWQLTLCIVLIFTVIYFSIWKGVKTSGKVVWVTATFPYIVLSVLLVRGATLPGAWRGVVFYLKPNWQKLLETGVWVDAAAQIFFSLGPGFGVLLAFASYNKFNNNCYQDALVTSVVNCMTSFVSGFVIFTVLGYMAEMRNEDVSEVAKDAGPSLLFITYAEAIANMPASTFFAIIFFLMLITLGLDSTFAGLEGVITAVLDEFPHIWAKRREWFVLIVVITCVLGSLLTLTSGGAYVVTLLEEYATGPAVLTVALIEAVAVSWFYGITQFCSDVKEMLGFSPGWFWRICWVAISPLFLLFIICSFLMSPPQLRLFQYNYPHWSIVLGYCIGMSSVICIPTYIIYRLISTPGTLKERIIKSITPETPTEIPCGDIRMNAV

On to `CCNC(C)Cc1cccc(C(F)(F)F)c1` (racemic) [fenfluramine, (±)-N-ethyl-1-[3-(trifluoromethyl)phenyl]propan-2-amine hydrochloride], for which, in assay [1], the “persistent elevation of extracellular 5-HT for the duration of sampling” value was 500-800% and the “extracellular 5-HT after the first dose” value is given as ~1200 % of basal. The dialysate dopamine entry in assay [2] is given as “about 150 % of basal”.
As for `CC(N)Cc1cccc(C(F)(F)F)c1.Cl` (single isomer, unassigned; (+)) [d-norfenfluramine, (+)-1-[3-(trifluoromethyl)phenyl]propan-2-amine hydrochloride], on hSERT (hSERT-expressing oocytes), the “concentration at which maximal current was measured” value (shortened to “concentration”) came to 100 µM. For the same molecule, the “current magnitude relative to mCPP, TFMPP or MTA” value on hSERT (maximal currents, hSERT-expressing oocytes) is given as “up to 2 times”. In addition, the “inwardly-directed current compared to 5-HT-induced current” value at hSERT was “almost as high as the 5-HT-induced current”. Also, the “Emax of 5-HT release” value at SERT is reported as 100%.
`CSc1ccc(CC(C)N)cc1.CSc1ccc(C[C@@H](C)N)cc1` [MTA, 4-Methylthioamphetamine ((2R)-1-[4-(methylsulfanyl)phenyl]propan-2-amine)]: the “concentration” value at hSERT (hSERT-expressing oocytes) stood at 3 µM. Also, the “inwardly-directed current compared to 5-HT-induced current” value on hSERT is on record as “comparably small current”.
The term EC50 denotes the concentration needed to bring the measured effect to its halfway point. Low readings indicate higher potency in that assay, high ones lower potency in that assay. For the molecule `Cl.FC(F)(F)c1cccc(N2CCNCC2)c1` [TFMPP, 1-(3-trifluoromethylphenyl)piperazine hydrochloride], in assay [1], the “extracellular 5-HT after the first dose” value is recorded as “about 1400 % of basal”. On hSERT, the response was half-maximal at 2430 nM (EC50) and the “inwardly-directed current compared to 5-HT-induced current” value is “about half the 5-HT-induced current”. Moreover, on hSERT (hSERT-expressing oocytes), the “concentration” value was 3 µM. Also, in assay [3], the “releasing [3H]dopamine” value is “inactive”. For the same molecule, the dialysate dopamine in assay [2] is reported as 80 % of basal.
For `CCN[C@@H](C)Cc1cccc(C(F)(F)F)c1` [d-fenfluramine, (+)-N-ethyl-1-[3-(trifluoromethyl)phenyl]propan-2-amine hydrochloride], the “extracellular 5-HT after the first dose” value in assay [1] was ~1200 % of basal. Also, in assay [3], the “releasing [3H]dopamine” value was “inactive”.
For `Cl.Cl.Clc1cccc(N2CCNCC2)c1` [mCPP, 1-(3-Chlorophenyl)piperazine dihydrochloride], in assay [1], the “persistent elevation of extracellular 5-HT for the duration of sampling” value is listed as “about 500%” and the “extracellular 5-HT after the first dose” value was “about 1000 % of basal”. At hSERT, a half-maximal response (EC50) required 1940 nM and the “inwardly-directed current compared to 5-HT-induced current” value is on record as “about half the 5-HT-induced current”. In addition, the “concentration” value on hSERT (hSERT-expressing oocytes) worked out at 3 µM. In addition, the “releasing [3H]dopamine” value in assay [3] was “inactive”. Also, the dialysate dopamine in assay [2] is 150 % of basal.

The values are drawn from PMC3988539 (Neuropsychopharmacology : official publication of the …, 2013).
